Assays:
Set-up in all cases: species or system BALB/c nude mice
[1] = tested on: NCI-H1975 lung cancer patient-derived xenograft (CDX); test: Pharmacodynamics study in vivo, NCI-H1975 xenograft (CDX) model; details: AZD9291 5 mg/kg
Experimental: (§1) For example, after 21 days of administration, the tumor volume of the representative compounds 30, 33, 34, 40, 42 and 43 decreased from the beginning of about 149 mm^3 to 3-39 mm^3.
(§2) The pharmacological experiments in vivo were performed on BALB/c nude mice that subcutaneously implanted NCI-H1975 lung cancer […] xenograft (CDX).
(§3) BALB/c nude mice, female, 6-8 weeks, weighted about 18-22 grams, the mice were kept in a special pathogen-free environment, and in a single ventilation cage (5 mice per cage). The bedding and water of all the cages were disinfected before use. All animals were free to obtain standard certified commercial laboratory diets. A total of 100 mice were purchased from Beijing Vital for research. The tumor tissue (20-30 mm^3) was implanted subcutaneously in the […] of each mouse for tumor growth. The experiment was started when the average tumor volume reached about 150-200 mm^3. The test compound was orally administered daily (compound 30 was administered at 10 mg/kg, compound 33, 34, 40, 42 and 43 were administered at 20 mg/kg and compound AZD9291 was administered continuously for 21 days at 5 mg/kg, the data were shown in Table 3). The tumor volume was measured twice a week with a two-dimensional caliper and the volume was measured in cubic millimeters and calculated by the following formula: V=V=0.5 a×b2, where a and b were the major and minor diameters of the tumor, respectively.

[2] = tested on: NCI-H1975 lung cancer xenograft (CDX); test: as above; details: day 0, oral daily: compound 30 10 mg/kg, 33, 34, 40, 42, 43 20 mg/kg, AZD9291 5 mg/kg
Experimental: as §1, §2, §3

[3] = tested on: human skin squamous cell A431 xenograft (CDX); test: Selectivity study in vivo, A431 xenograft (CDX) model; details: Table 5 experiment, AZD9291 5 mg/kg
Experimental: In this model, the less inhibitory effect on the tumor, the better the selectivity in vivo.
The selective experiments in vivo were performed on BALB/c nude mice that subcutaneously implanted human skin squamous cell A431 xenograft (CDX).
BALB/c nude mice, female, 6-8 weeks, weighted about 18-20 grams, the mice were kept in a special pathogen-free environment and in a single ventilation cage (5 mice per cage). The bedding and water of all the cages were disinfected before use. All animals were free to obtain standard certified commercial laboratory diets. All mice were purchased from mice of Shanghai BK Laboratory Animal Co., LTD for research. The tumor tissue (20-30 mm^3) was implanted subcutaneously in the […] of each mouse for tumor growth. The experiment was started when the average tumor volume reached about 150-200 mm^3. The test compound was orally administered (compounds 17, 30, 37 and 38 were administered once daily at 20 mg/kg, the compound AZD9291 was administered once daily at 5 mg/kg, the compound CO-1686 was administered twice daily at 50 mg/kg, the compound Erlotinib was administered once daily at 75 mg/kg and the compound Afatinib was administered once daily at 7.5 mg/kg, 21 days of continuous administration. The data were shown in Table 4; compounds 33, 34, 40, 42 and 43 were administered once daily at 20 mg/kg and compound AZD9291 was administered once daily at5 mg/kg, 21 days of continuous administration. The tumor volume was measured twice a week with a two-dimensional caliper and the volume was measured in cubic millimeters and calculated by the following formula: V=V=0.5 a×b2, where a and b were the major and minor diameters of the tumor, respectively.

`C=CC(=O)Nc1cc(Nc2nccc(-c3cn(C)c4ccccc34)n2)c(OC)cc1N(C)CCN(C)C` [AZD9291, reference compound] was tested, and the “Tumor Volume (mm^3) 4 days” value ([1]; day 4, oral daily: compound 30 10 mg/kg, 33, 34, 40, 42, 43 20 mg/kg) was 86 mm^3, the “Tumor Volume (mm^3) 7 days” value ([1]; day 7, oral daily: compound 30 10 mg/kg, 33, 34, 40, 42, 43 20 mg/kg) was 64 mm^3 and the “Tumor Volume (mm^3) 11 days” value ([1]; day 11, oral daily: compound 30 10 mg/kg, 33, 34, 40, 42, 43 20 mg/kg) was 52 mm^3. For the same compound, the “Tumor Volume (mm^3) 14 days” value ([1]; day 14, oral daily: compound 30 10 mg/kg, 33, 34, 40, 42, 43 20 mg/kg) was 66 mm^3, the “Tumor Volume (mm^3) 18 days” value ([1]; day 18, oral daily: compound 30 10 mg/kg, 33, 34, 40, 42, 43 20 mg/kg) was 25 mm^3 and the “Tumor Volume (mm^3) 21 days” value ([1]; day 21, oral daily: compound 30 10 mg/kg, 33, 34, 40, 42, 43 20 mg/kg) was 15 mm^3. The “Tumor Volume (mm^3) 0 day” value [2] was 149 mm^3, the “Tumor Volume (mm^3) 4 days” value ([3]; day 4, oral once daily: 33, 34, 40, 42, 43 20 mg/kg) was 153 mm^3 and the “Tumor Volume (mm^3) 11 days” value ([3]; day 11, oral once daily: 33, 34, 40, 42, 43 20 mg/kg) was 219 mm^3. For the same compound, the “Tumor Volume (mm^3) 18 days” value ([3]; day 18, oral once daily: 33, 34, 40, 42, 43 20 mg/kg) was 330 mm^3.

— patent publication US10093656B2, “Fused-ring or tricyclic aryl pyrimidine compound used as kinase inhibitor” (NANJING SANHOME PHARMACEUTICAL CO., LTD, priority 2015, dated 2018)
